Assays:
[1] = tested on: Aβ deposited in the brains of Alzheimer's disease patients; assay: Brain tissue assay: solubilisation of Aβ deposits from post-mortem AD brain (Western blot); set-up: species or system human; settings: post-mortem brain homogenate in PBS, 24 h at room temperature, Western blot (FIG. 7); compound concentrations as in Table 1
Description: Post-mortem tissues, stored at −80° C., were obtained from the NH&MRC-supported Brain Bank at the University of Melbourne, together with accompanying histopathological and clinical data. AD was assessed according to CERAD criteria (Mirra et al, 1991).
Compounds were dissolved in DMSO and diluted in a PBS mixture. Insoluble material was removed.
The cortical meninges were removed and gray matter (0.5 g) was homogenised using a DIAX 900 homogeniser (Heidolph & Co, Kelheim, Germany) for 3×30 s periods at full speed, with a 30 s rest between strokes, in 3 ml of ice-cold phosphate-buffered saline (PBS), pH 7.4, containing a mixture of protease inhibitors (BioRad, Hercules, Calif.), but without ethylene diamine tetraacetic acid (EDTA), or in the presence of test compounds or metal ions prepared in PBS. The homogenate samples were incubated for 24 h at room temperature. To obtain the PBS-extractable fraction, the homogenate was centrifuged at 100,000×g for 30 min, the supernatant removed, and divided into 1 ml aliquots. Protein in a 1 ml supernatant sample was precipitated using 1:5 ice-cold 10% trichloracetic acid (TCA), and pelleted by centrifugation at 10,000×g for 20 mins. The pellet was prepared for PAGE by boiling for 10 min in Tris-tricine SDS-sample buffer containing 8% SDS, 10% mercaptoethanol and 8M urea. Total Aβ in the cortical samples was obtained by homogenizing in 1 ml PBS and boiling in sample buffer as described above.
Tris-tricine PAGE was performed by loading samples on to 10-20% gradient gels (Novex, San Diego, Calif.), followed by transfer on to 0.2 mm nitrocellulose membrane (BioRad, Hercules, Calif.). The Aβ was detected using the following monoclonal antibodies: W02, which detects Aβ40 and Aβ42 at an epitope between residues 5 and 8; G210, which is specific for Aβ species which terminate at carboxyl residue 40; or G211, which is specific for Aβ species which terminate at carboxyl residue 42 (Ida et al, 1996), in conjunction with horseradish peroxidase(HRP)-conjugated rabbit anti-mouse IgG (Dako, Denmark), and visualised using chemiluminescence (ECL, Amersham Life Science, UK). Each gel included two or more lanes containing known quantities of synthetic Aβ (Keck Laboratory, Yale University New Haven, Conn.) as reference standards. Blot films were scanned using a Relisys scanner with transparency adapter (Tech Information Systems, Taiwan) and densitometry performed using Image 1.6 software (NIH, Bethesda, Mass.). All samples were analysed at least twice, and gel loadings and dilutions adjusted to fit within the quantifiable region of the standard curve.

Aβ1-28 = target: T1, Aβ1-28 (Homo sapiens, UniProt P05067); assay: 1H NMR reaction of compound with Aβ1-28; type: binding; settings: ~1 equivalent, 24 hrs in DMSO; 600 MHz 1H NMR, pH 6.9, 271 K
T1 construct: adding two equivalents of Cu^2+ to Aβ1-28
T1 sequence (P05067 672-699): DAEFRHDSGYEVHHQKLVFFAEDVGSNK
Description: 1.8 mgs of Aβ1-28 was dissolved in 5 mls DMSO was mixed with 0.33 mgs of compound KJB001 (˜1 equivalent) dissolved in 0.3 mls DMSO. The mixture was allowed to stand for 24 hrs before being freeze-dried. The resulting blue powder was dissolved in 550 μl of an aqueous solution containing 100 mM NaCl, 50 mM phosphate buffer, pH 6.9. A solution of 1.8 mgs Aβ1-28 dissolved in 550 μl of the same solution was used as a control.

[2] = tested on: cerebral cortical neuron cultures; assay: LDH assay for cell death: inhibition of Aβ1-42 neurotoxicity in vitro; type: cell-based; settings: treatment alone; LDH release compared to untreated control cultures; 5 days; KJB030 dialysed, at most 20 μM; Aβ1-42 20 μM
Description: Compound KJB030 was dissolved in chelex 100-treated double distilled H2O (CH100-dH2O) at a concentration of 200 μM. Aβ1-42 was dissolved in either 200 μm KJB030 solution or in CH100-dH2O. Both solutions contained 200 μM Aβ1-42. The Aβ1-42 solutions were incubated at ambient temperature (˜20-24° C.) for 3 days. The solutions were then brought to a physiological state by adding 10× phosphate buffered saline (PBS), pH 7.4, thus bringing samples to 1×PBS. Samples were then incubated at 37° C. for 24 hr to induce aggregation of Aβ1-42. Samples were subsequently dialysed in microdialysis cups (3500 Mr cut-off) placed in 5 L PBS for 24 hr, in order to remove some of the excess KJB030 without loss of Aβ1-42.
Dialyzed samples were added to six day old cerebral cortical neuron cultures growing in Neurobasal medium with B27 supplements but without anti-oxidants (Gibco). Samples were diluted into the culture medium to a final concentration of 20 μM Aβ1-42. […]
Determination of cell death was performed using the lactate dehydrogenase (LDH) assay kit (Boehringer Mannheim). […] Culture medium was mixed with the reagents from the LDH kit as per the manufacturer's instructions and the level of LDH measured colourimetrically on a spectrophotometric 96 well plate reader at 490 nm.

Row | Compound | ability to solubilise Aβ deposited in the brains of Alzheimer's disease patients [1] | reaction with His6, His13, His14 of Aβ1-28 (shift of histidine C2H peaks) (Aβ1-28) | % cell death [2] [%]
1 | [Co+2].c1ccc2c(c1)-c1nc-2nc2[n-]c(nc3nc(nc4[n-]c(n1)c1ccccc41)-c1ccccc1-3)c1ccccc21 [KJB001, Co(II) phthalocyanine β-form] | particularly strong solubilising activity | had reacted with these residues | –
2 | CC(C)(C)c1cc(C=N[C@H]2CCCC[C@@H]2N=Cc2cc(C(C)(C)C)cc(C(C)(C)C)c2[O-])c([O-])c(C(C)(C)C)c1.[Cl-].[Mn+3] [KJB002, (S,S)-(+)-N-N′-bis(3,5-di-tert-butylsalicylidene)-1-2-cyclohexane diamino manganese(III) chloride] | good activity | – | –
3 | [Mn+2].c1ccc2c(c1)-c1nc3nc(nc4[n-]c(nc5[n-]c(nc-2n1)c1ccccc51)c1ccccc41)-c1ccccc1-3 [KJB006, Manganese(II) phthalocyanine] | good activity | – | –
4 | C1=Cc2nc1c(-c1ccccc1)c1ccc([nH]1)c(-c1ccccc1)c1nc(c(-c3ccccc3)c3ccc([nH]3)c2-c2ccccc2)C=C1.[Cl-].[Cl-].[Cl-].[Mn+3] [KJB007, 5,10,15,20-tetraphenyl-21H,23H-porphine manganese(III) chloride] | good activity | – | –
5 | Aβ1-42: β-amyloid peptide 1-42, the neurotoxic agent in the LDH assay | – | – | 22 ± 3.5

Source: patent US7704987B1, “β-amyloid peptide inhibitors” (Prana Biotechnology Ltd, priority 1999, dated 2010)
